| melting point [°C] | SMILES |
| --- | --- |
| 121 to 123 | NC(=S)c1cccc(Cl)c1Cl |
| 112 to 115 | CC(C)(C)OC(=O)N1CCN(c2ccc(CO)cn2)CC1 |
| 124 | CC(C)(CO)C(=O)O |
| -12 | CCCCCC(c1ccccc1)c1ccccc1 |
| 92 | Cc1cc2ccccc2cc1COC(=O)C(F)(F)F |
| 200 | CCOC(=O)c1c(NS(=O)(=O)c2ccc(Cl)cc2)nn(-c2ccc([N+](=O)[O-])cc2)c1N |
| 35 | S=C1SCCS1 |
| 58 to 63 | OCc1ccc2nsnc2c1 |
| 114 to 117 | CC(C)(C)OC(=O)NC(=O)OC(C)(C)C |
| 200 | Cn1c(/C(C#N)=N/Nc2ccc(C(=O)O)cc2)nc2ccccc21 |
| 264 | Cn1c(=O)c(C2=NNC(=O)C2=NNc2ccccc2Cl)c(O)c2ccccc21 |
| 114 | Clc1cc(Cl)c(OCC#CI)cc1Cl |
| 230 | Cn1c(=O)c(C2=NNC(=O)C2=NNc2cccnc2)c(O)c2ccccc21 |
| 116 | N#Cc1cccc(C[C@H](NC(=O)OCC2c3ccccc3-c3ccccc32)C(=O)O)c1 |
| 212 to 217 | COc1ccc2c(CBr)cc(=O)oc2c1 |
| 122 | CC(=O)CCc1ccc(CCC(C)NC(=O)c2ccccc2)cc1 (stereo not given) |
| 92 to 93.5 | CCOC(=O)c1cnc2c(c(C)nn2C)c1Oc1ccc(OC)cc1 |
| 186 to 187 | Nc1ccc2c(c1)CS(=O)(=O)C2 |
| 180 to 182 | FC(F)(F)c1cccnc1S |
| 67 to 70 | O=Cc1ccccc1OC1CCOCC1 |
| 178 to 179 | COC(=O)c1cc2cc(N)ccc2s1 |
| 97 | COc1ccc(CCl)c(C)c1CCl |
| 177 | Cc1ccncc1C(=O)NN |

| melting point [°C] | SMILES |
| --- | --- |
| 39.5 | O=CNC1CCCCC1 |
| 138 to 140 | CC(=O)c1sc(-c2ccc(Cl)cc2)cc1N |
| 110 to 111 | CSc1ncccc1-c1nc(CCl)no1 |
| 203 to 205 | Nc1nc(SCc2ccc([N+](=O)[O-])cc2)c2ncn(C3OC(CO)C(O)C3O)c2n1 (stereo not given) |
| 95.5 | Cc1cc(O)c(Cl)c(C)c1Cl |
| 98 to 100 | O=Cc1cccc(-c2ncccn2)c1 |
| 54 | O=S(=O)(CCCl)c1ccccc1 |
| 130 | NS(=O)(=O)c1ccc(S(=O)(=O)CCCO)c(F)c1 |
| 10 | CCCCCCCCCCCCCCCC(OC)OC |
| 76 to 78 | CN(C(=S)Cl)c1ccc(Cl)cc1 |
| 117 to 119 | CC(=NO)c1ccccn1 |
| 220 to 225 | CCOC(=O)c1cc2cc([N+](=O)[O-])ccc2[nH]1 |
| 102 | Nc1ccc(Oc2ccc(Cl)cc2)cc1 |
| 55 to 58 | CC(=O)c1c(-c2ccccc2)noc1C |
| 86 | Cc1cc2c(c(C)c1C)CC2=O |
| 310 | CC(=O)c1c(O)nc2cc3nc(O)c(C(C)=O)c(C)c3cc2c1C |
| 5 | OCc1ccccn1 |
| 198 to 204 | O=C1C=CC(=O)N1c1cccc(N2C(=O)C=CC2=O)c1 |
| 221 to 222 | Cc1n[nH]c(C)c1-c1ccc(-c2ccccc2)cc1 |
| 105 | CNc1ccc2cc3ccc4c(c3nc2c1CO)COCN4 |
| 360 | Cc1nc(O)cc(O)n1 |
| 36 | CCCCCCCCCCCCCCCCC=O |
| 62 | Cc1cc(Br)cnc1F |

| melting point [°C] | SMILES |
| --- | --- |
| 275 to 277 | Cc1n[nH]c(S)n1 |
| -73 | CCCCC#CCCCC |
| 222 to 224 | Cn1cnc(S(N)(=O)=O)c1 |
| -18.7 | CCOCCOCCOCCO |
| 123 to 128 | Clc1nc(-c2ccccc2)nc2ccccc12 |
| 35 | CC(C)C=CC(=O)O |
| 107 | O=C(O)CCc1ccccc1 |
| 80 | O=C(C1=NOC2C(=O)N(c3cccc4ccccc34)C(=O)C12)c1cccs1 (stereo not given) |
| 234 | COc1cc2c(cc1OC)CN1C(=O)C(C)NC(=O)C1C2 (stereo not given) |
| 49 | CCc1cc2ccccc2ccc1=O |
| 114 to 115 | CCOC(=O)c1nc(-c2ccc(S(=O)(=O)Cl)s2)no1 |
| 147 to 150 | COc1ccc(C(C)=NO)cc1OC |
| 151 | CC1NC(=O)NC1=O (stereo not given) |
| 137 | COc1cc(C2Nn3c(nnc3-c3ccccc3OC)S2)ccc1O (stereo not given) |
| 140 to 142 | Cc1nc2ccccn2c1C(=O)O |
| -50 | CCCCCCCCCCOC(=O)CCCCC(=O)OCCCCCCCC |
| 72 | Cc1cc(C)c(O)cc1C |
| 33.5 | O=C1CCCCCCCCCCCCCCCO1 |
| 250 | O=C1c2ccccc2-c2c(O)cccc21 |
| 164 to 165 | COc1cc(CCl)c(OC)cc1CCl |
| 128 | CC(=O)c1ccc(O)cc1C |
| 250 | C=C(C)C1CCC2(CO)CCC3(C)C(CCC4C5(C)CCC(O)C(C)(C)C5CCC43C)C12 (stereo not given) |
| 194 to 196 | Cc1c(C#N)c(N)n(Cc2c(Cl)cccc2Cl)c1C |

| melting point [°C] | SMILES |
| --- | --- |
| -57.1 | CCCCN1CCOCC1 |
| 38 | c1ccc2nnccc2c1 |
| 51 | Cc1cc(C(C)(C)C)cc(C(C)(C)C)c1O |
| 272 | Cn1c(=O)c(C2=NNC(=O)C2=CNc2ccccc2)c(O)c2ccccc21 |
| 173 | O=C1c2ccccc2CC2c3ccccc3CCN12 (stereo not given) |
| 18.3 | Cc1c(N=C=O)cccc1N=C=O |
| 117 to 122 | COc1ccc(C=CC(=O)c2ccc(F)cc2)c(OC)c1 |
| 110 to 112 | NC(=S)c1cccc(-n2cccc2)c1 |
| 171 to 172 | CCOC(=O)c1nnn2c1nc(S)c1ccccc12 |
| 89 | CC(=O)OC1=C(C(C)C)C(=O)C2=C(C1=O)C1(C)CCCC(C)(C)C1C(OC(C)=O)C2OC(C)=O (stereo not given) |
| -4 | FC(F)(F)C(F)(F)C(F)(F)C(F)(F)C(F)(F)C(F)(F)F |
| 267 | CCO/C=N/c1c(C(=O)OCC)sc2sc(C(=O)OCC)c(/N=C/OCC)c12 |
| 187 | O=C(O)C=Cc1ccc(Cl)c([N+](=O)[O-])c1 |
| 289 | O=C(O)C=Cc1ccc([N+](=O)[O-])cc1 |
| 124 to 127 | CC(=O)N1CCc2cc(Br)ccc21 |
| 92 to 96 | N#Cc1c(F)cccc1Oc1ccccc1 |
| 176 | CC(CCC(=O)O)C1CCC2C3C(=O)CC4CCCCC4(C)C3CC(=O)C12C (stereo not given) |
| 102 | CCOc1cccc(C(=O)NN)c1 |
| 108 | C#CC1(O)CCC2C3CCc4cc(OC5CCCC5)ccc4C3CCC21C (stereo not given) |
| 123 to 125 | O=C(NCc1ccc(S(=O)(=O)Cl)s1)c1ccccc1 |
| 82.5 | O=C(C(=O)c1cccs1)c1cccs1 |
| 184 to 186 | OC(c1ccccc1)(c1ccccc1)C(O)(c1ccccc1)c1ccccc1 |
| 154 to 157 | COC(=O)C1CC(=O)C(C(=O)OC)CC1=O (stereo not given) |

| melting point [°C] | SMILES |
| --- | --- |
| 23 | O=S(=O)(Cl)c1ccccc1C(F)(F)F |
| 67 to 68 | CCOC(=O)C1CCN(c2ccc(C#N)cc2)CC1 |
| 58 to 59 | OC1Cc2ccccc21 (stereo not given) |
| 68 | Cc1ccc2nc(C)cc(C)c2c1 |
| 79 to 80 | O=C(Cl)c1cccnc1Oc1ccc(Cl)cc1 |
| 220 to 221 | Nc1c([N+](=O)[O-])sc2ccccc12 |
| 166 | O=C1CCC(=O)N1CN1C(=O)C(=Cc2ccco2)SC1=S |
| 113 | Cc1cccc2c(O)c(C=C3C(=O)N(c4ccccc4)N=C3c3ccccc3)c(=O)[nH]c12 |
| 60 to 62 | Cc1cc(Br)c(O)c2c1CCC2 |
| 140 | Cc1ccc(Nc2ccc([N+](=O)[O-])cc2[N+](=O)[O-])cc1 |
| 110 to 112 | CCOC(=O)N1CCc2cc(OC)c(OC)cc2C1C#N (stereo not given) |
| 177 to 181 | NC(=S)Nc1ccc(Cl)cc1 |
| 79 | CCOc1ccccc1NC(C)=O |
| 203 | Nc1ccncc1[N+](=O)[O-] |
| 215 to 216 | O=C(O)C=Cc1ccccc1Br |
| 178 to 184 | CC(CO)C1CCC2C3CCC4=CC(=O)C=CC4(C)C3CCC12C (stereo not given) |
| 153 to 154 | CN(C)CC(O)Cn1c2ccc(Br)cc2c2cc(Br)ccc21 (stereo not given) |
| 210 to 215 | NC1=NN(c2ccccc2)C(=O)C1 |
| 185 | CCOC(=O)C1=C(C)NC(=O)NC1c1ccc(Cl)cc1 (stereo not given) |

| SMILES | melting point [°C] |
| --- | --- |
| C[C@H](Cl)C(=O)O | 4 |
| CCC1(C2=CC3CCC(C2)C3)C(=O)NC(=O)NC1=O (stereo not given) | 213 |
| O=[N+]([O-])c1cccc(F)c1CBr | 52 |
| CC(C)(C)c1cc([N+](=O)[O-])cc([N+](=O)[O-])c1O | 126 |
| Clc1ccc2c(c1)Oc1ccccc1O2 | 88 |
| c1ccc2cc3cc4ccccc4cc3cc2c1 | 357 |
| O=[N+]([O-])c1cccc(Cl)c1O | 70 |
| COc1cc(CC#N)cc(OC)c1OC | 77 |
| Clc1ccc2oc3c(Cl)c(Cl)c(Cl)c(Cl)c3c2c1 | 178 |
| CCC(C)C(N)P(=O)(O)O (stereo not given) | 274 |
| CC(C)CC(=O)C1C(=O)c2ccccc2C1=O | 68.5 |
| CC(C)(c1cc(Br)c(OCCO)c(Br)c1)c1cc(Br)c(OCCO)c(Br)c1 | 108 to 114 |
| Cn1c(=O)oc(=O)c2ccccc21 | 165 |
| CCC(=O)C1(c2cccc(O)c2)CCN(C)CC1 | 156 |
| Cc1ccc(O)c2ccccc12 | 85.8 |
| O=C(O)C=Cc1ccc2c(c1)OCO2 | 242 to 244 |
| N#Cc1ccc(CCl)cc1 | 79 |
| COc1cc(C2c3cc4c(cc3C(O)C3COC(=O)C23)OCO4)cc(OC)c1OC (stereo not given) | 228 |
| N#Cc1cc(C#N)c(C#N)cc1C#N | 267 to 270 |

Source: a melting point compilation (Tetko et al.)
